US9750761B2, “LDH inhibitors as treatment for fibrosis and fibrotic-related disorders” (University of Rochester, priority 2014, dated 2017)

Key:
[1] = system: primary human lung fibroblasts; test: Radiation-induced myofibroblast differentiation (α-SMA, LDHA Western blot); format: cell-based; conditions: SB431542 2.5 μM from 1 hour before 7 Gy, 5 days post radiation
Protocol: Cell Culture and Irradiations: Fibroblasts were cultured in Eagle's minimum essential media (Life Technologies, Gaithersburg, Md.) supplemented with 10% FBS (Sigma Aldrich, St. Louis, Mo.), 2 mM L-Glutamine, antibiotic and antimycotic (Gibco, Carlsbad, Calif.) at 37° C. with 7% CO2. Cells were irradiated with a ^137Cs γ-ray source at approximately 2.70 cGy/min dose rate at indicated doses. Human recombinant TGF-β1 (R&D systems, Minneapolis, Minn.) was used at 1 ng/ml. […] TGF-β1 receptor 1 was inhibited using SB431542 (Sigma Aldrich) at 2.5 μM starting 1 hour prior to irradiations.
Western Blotting: Cell lysates were run on SDS-PAGE under reducing conditions and probed for expression of α-SMA (Sigma Aldrich), LDHA (Abcam, Cambridge, Mass.). Glyceraldehyde 3-phosphate dehydrogenase (Abcam) was used as a loading control.

[2] = system: primary human lung fibroblasts; test: Alamar blue assay; format: cell-based; conditions: 72 hours
Protocol: Alamar blue assay: Fibroblasts were cultured with and without TGF-β and/or gossypol for 72 hours and subsequently incubated with Alamar blue (Invitrogen, Grand Island, N.Y.). Alamar blue incorporation was determined by spectrophotometric analysis per the manufacturer's protocol.
Based on the foregoing results, it was believed that gossypol inhibits endogenous LDH activity, thus reducing lactate production and subsequent lactate-dependent activation of latent TGF-β in the medium. To investigate the mechanism of action of gossypol, fibroblasts were first treated with TGF-β for 72 hours. Next, protein lysates were harvested and incubated with increasing concentrations of gossypol for one hour. The LDH activity of each lysate was then determined with a standardized LDH kinetic activity assay. […] Next, it was investigated whether gossypol could prevent the extracellular accumulation of lactate by treated fibroblasts. […] To confirm that gossypol inhibits extracellular accumulation of lactate, the rate of extracellular acidification was measured using the commercially available Seahorse Bioassay. […] To determine whether the effects of gossypol were dependent on toxic effects on the cells, the Alamar blue assay was utilized.

Structure (SMILES) | radiation-induced α-SMA expression [1] | Alamar blue reduction ([2]; 1 mM gossypol) | Alamar blue reduction ([2]; 5 mM gossypol) | decrease in Alamar blue reduction ([2]; 10 mM gossypol)
NC(=O)c1ccc(-c2nc(-c3ccc4c(c3)OCO4)c(-c3ccccn3)[nH]2)cc1 [SB431542] | significantly attenuated radiation-induced α-SMA expression |  |  | 
Cc1cc2c(C(C)C)c(O)c(O)c(C=O)c2c(O)c1-c1c(C)cc2c(C(C)C)c(O)c(O)c(C=O)c2c1O [gossypol] |  | no significant effect on Alamar blue reduction | no significant effect on Alamar blue reduction | 50%
